Experimental data published in patent US8957087B2, “Heterocyclic substituted acardite derivate and application thereof” (Jiangsu Provincial Institute of Materia Medica Co., Ltd., priority 2009, dated 2015).

Legend:
Raf-1(truncated) = test: Raf-1 inhibitor screening by chemoluminescence method; format: biochemical; conditions: Final concentration 1 x 1.0*10^−5 mol/ml
Excerpt: 1. Inhibitory activity of the compound of the present invention on raf kinase
Raf-1 inhibitor screening by chemoluminescence method
Westernblot electrophoresis apparatus Rotaryshaker
Raf-1(truncated), Magnesium/ATP Cocktail, MEK1 unactive

[1] = test system: human lung cancer cell strain A549; test: MTT assay, inhibition of growth of human lung cancer cell strain A549; format: cell-based
Procedure, shortened: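 A549 cells grown in F12 with 10% FBS; growth read by MTT, inhibition rate from blank-corrected OD of drug wells versus control wells.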

[2] = test system: human high-metastic lung cancer cell 95D; test: Inhibition of human high-metastic lung cancer cell 95D migration (Boyden Chamber Transwell); format: cell-based; conditions: Final concentration 1 x 1.0*10^(−5) mol/L
Procedure, shortened: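 Boyden Transwell migration (8 μm pores) of 95D cells, RPMI-1640 with 10% FBS versus serum-free medium; inhibition rate calculated.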

lung cancer cell A549 = test: Effects on the adhesive ability of lung cancer cell A549; format: cell-based, human; conditions: Final concentration 1 x 1.0*10^(−5) mol/L
Procedure, shortened: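 A549 cells in 1640 medium with 10% FBS tested for adhesion to gelatin versus poly-lysine (PLL), with CCK8 used as read-out. Inhibition rate derived from the gelatin/PLL adhesion OD ratio of dosed cells relative to the undosed cell group.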

[3] = test system: human umbilical vein endothelial cell HUVEC; test: Growth of human umbilical vein endothelial cell HUVEC by CCK8 method; format: cell-based; conditions: Final concentration 1 x 1.0*10^(−5) mol/L
Procedure, shortened: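 HUVEC cells were grown in 1640 medium with 10% FBS, and growth was measured by the CCK8 method. OD values of drug and control wells were corrected by subtracting the blank-well OD.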

[4] = test system: human umbilical vein endothelial cell HUVEC; test: Lumen formation ability of HUVEC (Matrigel method); format: cell-based; conditions: Final concentration 1 x 1.0*10^(−5) mol/L
Procedure, shortened: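 HUVEC at passage 3–5, cultured in M199 at 37° C under 5% CO2, were plated on Matrigel with compound. Spontaneous lumen formation was scored as an inhibition rate.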

[5] = test system: human lung cancer A549 transplantation tumor; format: in vivo; conditions: BALB/cA nude mice; 60 mg/kg, 6 times every week for 3 weeks; Sorafenib oral 60 mg/kg
Procedure, shortened: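 Female BALB/cA nude mice, 35-40 days old, bearing A549 human lung cancer transplants; 6 per treatment group, 12 saline controls. Compound given at 60 mg/kg, 6 times weekly for 3 weeks, then observed one week.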

[6] = test system: human liver cancer cell bel-7402 transplantation tumor; format: in vivo; conditions: BALB/cA nude mice; 60 mg/kg, 6 times every week for 3 weeks; Sorafenib oral 60 mg/kg
Procedure, shortened: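 Female BALB/cA nude mice (35–40 days, 18–22 g) bearing Bel-7402 xenografts; 6 mice per treated group, 12 in saline controls. Compound dosed at 60 mg/kg, 6 times weekly for 3 weeks, followed by one week of observation; tumor inhibition rate scored against controls.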

[7] = test system: renal carcinoma cell line GCR-1 transplanted tumor; format: in vivo, BALB/cA nude mice; conditions: BALB/cA nude mice; 60 mg/kg, 6 times every week for 3 weeks; Sorafenib oral 60 mg/kg
Procedure, shortened: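 Female BALB/cA nude mice (18–22 g) bearing GCR-1 renal carcinoma xenografts, 6 per treated group, 12 saline controls. Drug given at 60 mg/kg, 6 times weekly for 3 weeks, then one week of observation; tumor inhibition rate reported.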

mice S180 sarcoma = test: Experimental therapeutic action on S180 sarcoma mice; conditions: mice S180 sarcoma, 60 mg/kg orally for 9 days
[8] = test system: Human colon cancer HT-29 transplantable tumor; test: Human colon cancer HT-29 transplantable tumor in nude mice; conditions: HT-29 in nude mice, 60 mg/kg ig 9 times

Nc1ccc2c(Oc3ccc(NC(=O)Nc4ccc(Br)c(C(F)(F)F)c4)cc3)cncc2c1 [Compound 27, N-(4-bromo-3-(trifluoromethyl)phenyl)-N′-(4-(4-(7-amino-isoquinolyl)oxy)phenyl)urea]
Inhibition rate % on raf kinase (Raf-1(truncated)): 8.8% | Inhibition rate, growth of human lung cancer cell A549 [1]: 64.71% | Inhibition rate, 95D cell strain migration [2]: 59.77% | Inhibition rate, adhesion ability of human lung cancer cell A549 (lung cancer cell A549): 94.77% | Inhibition rate, growth of HUVEC cell [3]: 24.73% | Inhibition rate, lumen formation ability of HUVEC [4]: 89.75% | Relative tumor reproduction rate T/C (%) on human lung cancer A549 transplantation tumor in nude mice [5]: 36.3% | Relative tumor reproduction rate T/C (%) on human liver cancer cell bel-7402 transplantation tumor model in nude mice [6]: 29.2% | Relative tumor reproduction rate T/C (%) on human renal carcinoma GCR-1 cell transplanted tumor model in nude mice [7]: 26.2% | Tumor growth inhibition rate (%) (mice S180 sarcoma): 55.1% | Relative tumor reproduction rate T/C (%) [8]: 80.3%

Cc1cc(Oc2ccc(NC(=O)Nc3ccc(Cl)c(C(F)(F)F)c3)cc2)c[nH]1 [Compound 28, N-(4-chloro-3-(trifluoromethyl)phenyl)-N′-(4-(4-(2-methyl-pyrryl)oxy)phenyl)urea]
Inhibition rate % on raf kinase (Raf-1(truncated)): 33.5% | Inhibition rate, growth of human lung cancer cell A549 [1]: 88.52% | Inhibition rate, 95D cell strain migration [2]: 70.53% | Inhibition rate, adhesion ability of human lung cancer cell A549 (lung cancer cell A549): 90.53% | Inhibition rate, growth of HUVEC cell [3]: 20.55% | Inhibition rate, lumen formation ability of HUVEC [4]: 89.52% | Relative tumor reproduction rate T/C (%) on human lung cancer A549 transplantation tumor in nude mice [5]: 13.6% | Relative tumor reproduction rate T/C (%) on human liver cancer cell bel-7402 transplantation tumor model in nude mice [6]: 17.5% | Relative tumor reproduction rate T/C (%) on human renal carcinoma GCR-1 cell transplanted tumor model in nude mice [7]: 11.4% | Tumor growth inhibition rate (%) (mice S180 sarcoma): 11.5% | Relative tumor reproduction rate T/C (%) [8]: 39.1%

Cc1cc(Oc2ccc(NC(=O)Nc3ccc(Br)c(C(F)(F)F)c3)cc2)c[nH]1 [Compound 30, N-(4-bromo-3-(trifluoromethyl)phenyl)-N′-(4-(4-(2-methyl-pyrryl)oxy)phenyl)urea]
Inhibition rate % on raf kinase (Raf-1(truncated)): 16.8% | Inhibition rate, growth of human lung cancer cell A549 [1]: 85.47% | Inhibition rate, 95D cell strain migration [2]: 69.62% | Inhibition rate, adhesion ability of human lung cancer cell A549 (lung cancer cell A549): 92.44% | Inhibition rate, growth of HUVEC cell [3]: 25.46% | Inhibition rate, lumen formation ability of HUVEC [4]: 90.66% | Relative tumor reproduction rate T/C (%) on human lung cancer A549 transplantation tumor in nude mice [5]: 13.1% | Relative tumor reproduction rate T/C (%) on human liver cancer cell bel-7402 transplantation tumor model in nude mice [6]: 16.1% | Relative tumor reproduction rate T/C (%) on human renal carcinoma GCR-1 cell transplanted tumor model in nude mice [7]: 10.2% | Tumor growth inhibition rate (%) (mice S180 sarcoma): 55.2% | Relative tumor reproduction rate T/C (%) [8]: 79.5%

CCc1cc(NC(=O)Nc2ccc(Oc3ccnc4cc(F)c(OC)cc34)cc2)ccc1Cl [Compound 31, N-(4-chloro-3-ethylphenyl)-N′-(4-(4-(6-methoxyl-7-fluoro-quinolinyl)oxy)phenyl)urea]
Inhibition rate % on raf kinase (Raf-1(truncated)): 89.4% | Inhibition rate, growth of human lung cancer cell A549 [1]: 46.78% | Inhibition rate, 95D cell strain migration [2]: 76.18% | Inhibition rate, adhesion ability of human lung cancer cell A549 (lung cancer cell A549): 66.77% | Inhibition rate, growth of HUVEC cell [3]: 26.70% | Inhibition rate, lumen formation ability of HUVEC [4]: 66.77% | Relative tumor reproduction rate T/C (%) on human lung cancer A549 transplantation tumor in nude mice [5]: 38.7% | Relative tumor reproduction rate T/C (%) on human liver cancer cell bel-7402 transplantation tumor model in nude mice [6]: 33.4% | Relative tumor reproduction rate T/C (%) on human renal carcinoma GCR-1 cell transplanted tumor model in nude mice [7]: 31.4% | Tumor growth inhibition rate (%) (mice S180 sarcoma): 50.3% | Relative tumor reproduction rate T/C (%) [8]: 50.3%

CCc1ccc(NC(=O)Nc2ccc(Oc3ccnc4cc(F)c(OC)cc34)cc2)cc1C(F)(F)F [Compound 32, N-(4-ethyl-3-(trifluoromethyl)phenyl)-N′-(4-(4-(6-methoxyl-7-fluoro-quinolinyl)oxy)phenyl)urea]
Inhibition rate % on raf kinase (Raf-1(truncated)): 90.5% | Inhibition rate, growth of human lung cancer cell A549 [1]: 45.76% | Inhibition rate, 95D cell strain migration [2]: 66.92% | Inhibition rate, adhesion ability of human lung cancer cell A549 (lung cancer cell A549): 64.73% | Inhibition rate, growth of HUVEC cell [3]: 24.77% | Inhibition rate, lumen formation ability of HUVEC [4]: 54.74% | Relative tumor reproduction rate T/C (%) on human lung cancer A549 transplantation tumor in nude mice [5]: 35.3% | Relative tumor reproduction rate T/C (%) on human liver cancer cell bel-7402 transplantation tumor model in nude mice [6]: 31.4% | Relative tumor reproduction rate T/C (%) on human renal carcinoma GCR-1 cell transplanted tumor model in nude mice [7]: 32.5% | Tumor growth inhibition rate (%) (mice S180 sarcoma): 49.8% | Relative tumor reproduction rate T/C (%) [8]: 46.2%

CCc1cc(NC(=O)Nc2ccc(Oc3ccnc4cc(F)c(C)cc34)cc2)ccc1Cl [Compound 33, N-(4-chloro-3-ethylphenyl)-N′-(4-(4-(6-methyl-7-fluoro-quinolinyl)oxy)phenyl)urea]
Inhibition rate % on raf kinase (Raf-1(truncated)): 92.3% | Inhibition rate, growth of human lung cancer cell A549 [1]: 57.53% | Inhibition rate, 95D cell strain migration [2]: 77.52% | Inhibition rate, adhesion ability of human lung cancer cell A549 (lung cancer cell A549): 77.59% | Inhibition rate, growth of HUVEC cell [3]: 17.50% | Inhibition rate, lumen formation ability of HUVEC [4]: 67.51% | Relative tumor reproduction rate T/C (%) on human lung cancer A549 transplantation tumor in nude mice [5]: 37.5% | Relative tumor reproduction rate T/C (%) on human liver cancer cell bel-7402 transplantation tumor model in nude mice [6]: 32.7% | Relative tumor reproduction rate T/C (%) on human renal carcinoma GCR-1 cell transplanted tumor model in nude mice [7]: 33.4% | Tumor growth inhibition rate (%) (mice S180 sarcoma): 55.3% | Relative tumor reproduction rate T/C (%) [8]: 39.9%

CCc1ccc(NC(=O)Nc2ccc(Oc3ccnc4cc(F)c(C)cc34)cc2)cc1C(F)(F)F [Compound 34, N-(4-ethyl-3-(trifluoromethyl)phenyl)-N′-(4-(4-(6-methyl-7-fluoro-quinolinyl)oxy)phenyl)urea]
Inhibition rate % on raf kinase (Raf-1(truncated)): 96.2% | Inhibition rate, growth of human lung cancer cell A549 [1]: 59.52% | Inhibition rate, 95D cell strain migration [2]: 63.65% | Inhibition rate, adhesion ability of human lung cancer cell A549 (lung cancer cell A549): 76.54% | Inhibition rate, growth of HUVEC cell [3]: 19.52% | Inhibition rate, lumen formation ability of HUVEC [4]: 66.52% | Relative tumor reproduction rate T/C (%) on human lung cancer A549 transplantation tumor in nude mice [5]: 22.3% | Relative tumor reproduction rate T/C (%) on human liver cancer cell bel-7402 transplantation tumor model in nude mice [6]: 31.5% | Relative tumor reproduction rate T/C (%) on human renal carcinoma GCR-1 cell transplanted tumor model in nude mice [7]: 36.1% | Tumor growth inhibition rate (%) (mice S180 sarcoma): 52.6% | Relative tumor reproduction rate T/C (%) [8]: 45.9%

CCNC(=O)c1cc(Oc2ccc(NC(=O)Nc3ccc(Cl)c(OC)c3)c(C)c2)c2ccc([N+](=O)[O-])cc2n1 [Compound 35, N-(4-chloro-3-methoxyphenyl)-N′-(2-methyl-4-(2-(N-ethylcarbamyl)-4-(7-nitryl-quinolinyl)oxy)phenyl)urea]
Inhibition rate % on raf kinase (Raf-1(truncated)): 45.3% | Inhibition rate, growth of human lung cancer cell A549 [1]: 55.74% | Inhibition rate, 95D cell strain migration [2]: 68.47% | Inhibition rate, adhesion ability of human lung cancer cell A549 (lung cancer cell A549): 75.72% | Inhibition rate, growth of HUVEC cell [3]: 5.74% | Inhibition rate, lumen formation ability of HUVEC [4]: 65.70% | Relative tumor reproduction rate T/C (%) on human lung cancer A549 transplantation tumor in nude mice [5]: 23.6% | Relative tumor reproduction rate T/C (%) on human liver cancer cell bel-7402 transplantation tumor model in nude mice [6]: 34.5% | Relative tumor reproduction rate T/C (%) on human renal carcinoma GCR-1 cell transplanted tumor model in nude mice [7]: 32.3% | Tumor growth inhibition rate (%) (mice S180 sarcoma): 55.8% | Relative tumor reproduction rate T/C (%) [8]: 51.2%

CCNC(=O)c1cc(Oc2ccc(NC(=O)Nc3ccc(Cl)c(OC)c3)c(OC)c2)c2ccc([N+](=O)[O-])cc2n1 [Compound 36, N-(4-chloro-3-methoxyphenyl)-N′-(2-methoxyl-4-(2-(N-ethylcarbamyl)-4-(7-nitryl-quinolinyl)oxy)phenyl)urea]
Inhibition rate % on raf kinase (Raf-1(truncated)): 81.2% | Inhibition rate, growth of human lung cancer cell A549 [1]: 72.45% | Inhibition rate, 95D cell strain migration [2]: 84.59% | Inhibition rate, adhesion ability of human lung cancer cell A549 (lung cancer cell A549): 74.50% | Inhibition rate, growth of HUVEC cell [3]: 12.45% | Inhibition rate, lumen formation ability of HUVEC [4]: 64.50% | Relative tumor reproduction rate T/C (%) on human lung cancer A549 transplantation tumor in nude mice [5]: 37.9% | Relative tumor reproduction rate T/C (%) on human liver cancer cell bel-7402 transplantation tumor model in nude mice [6]: 37.9% | Relative tumor reproduction rate T/C (%) on human renal carcinoma GCR-1 cell transplanted tumor model in nude mice [7]: 25.9% | Tumor growth inhibition rate (%) (mice S180 sarcoma): 55.1% | Relative tumor reproduction rate T/C (%) [8]: 41.5%
